For the assay, the target named is T1, CASP7 (Homo sapiens, UniProt P55210).
T1 construct: human CASP7 cDNA in pET28a, C-terminal 6-His tag, E. coli BL21(DE3), Ni-NTA purified; active processed form, MW 70 kDa hetero-tetramer (p19/p12)
T1 sequence (P55210 24-198): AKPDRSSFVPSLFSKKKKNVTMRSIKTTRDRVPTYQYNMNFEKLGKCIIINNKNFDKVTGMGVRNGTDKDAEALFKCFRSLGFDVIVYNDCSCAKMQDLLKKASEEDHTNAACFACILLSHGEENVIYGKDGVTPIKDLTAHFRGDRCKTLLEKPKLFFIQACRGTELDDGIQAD
T1 sequence (P55210 207-303): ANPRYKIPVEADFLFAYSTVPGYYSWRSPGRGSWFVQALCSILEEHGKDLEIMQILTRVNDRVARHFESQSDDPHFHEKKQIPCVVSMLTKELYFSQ
The experiment in a line: SPR (BIAcore), His-tagged CASP7 immobilised on NiNTA chip. The format is binding. To be noted: allosteric site near Cys246/Asp93 (proposed), reversible; 2.5, 5 or 10 μM injected.

Data on 1 compound can be found in article PMC12177060, “Blocking XIAP:CASP7-p19 selectively induces apoptosis of CASP3/DR malignancies by a novel reversible small molecule” (Cell Death & Disease, 2025).

Turning to `COc1cc2c(-c3ccc(O)cc3)nc3c(c(C)nn3-c3ccccc3)c2cc1OC` [compound 643943, 643943], the Kd came out at 3.1 µM.
